For data set [1], the system named is blood pressure and cardiac frequency of the narcotised cat. As to the kind of experiment: Influence on the blood pressure and cardiac frequency of the narcotised cat (Table I). The data set is classed as in vivo. Conditions: for Blood pressure lowered by 30% by: dose lowering blood pressure by 30%; for Blood pressure lowered by 50% by: dose lowering blood pressure by 50%. Details: unit not given here. From the text:
(§1) Influence on the blood pressure and cardiac frequency and also
(§2) on the carotid sinus reflex of the narcotised cat
(§3) Table I provides a general summary of the influence of different piperazinylquinazolones on the blood pressure, the cardiac frequency and the carotid sinus reflex of the narcotised cat.

For data set [2], the system named is carotid sinus reflex. The data set can be described thus: Inhibition of the carotid sinus reflex of the narcotised cat (Table I). It counts as in vivo. Further details: unit not given here. To be noted: for Inhibition of the carotid sinus reflex by 30% by: dose for 30% inhibition; for Inhibition of the carotid sinus reflex by 50% by: dose for 50% inhibition.
From the text: as §1, §2, §3
The inhibition of the carotid sinus reflex brought about by the piperazinyl quinazolones occurs at lower doses than the spontaneous lowering of the blood pressure in the cat.

The subject of data set [3] is blood pressure and cardiac frequency of the narcotised rat. The data set can be described thus: Influence on the blood pressure and the cardiac frequency of the narcotised rat (Table II). The data set is classed as in vivo. Conditions: iv, i/v, read-out: Blood pressure lowered by 30% by mg/kg i/v. From the text: Influence on the blood pressure and the cardiac frequency of the
blood pressure and the cardiac frequency of the narcosed rate and also on […]

Data set [4] concerns hypertensive effect of 1-adrenalin. The data set can be described thus: 50% inhibition of hypertensive effect of 0.001 mg/kg i/v 1-adrenalin on the despinalised rat (Table II). The data set is classed as in vivo. Conditions: iv, read-out: 50% inhibition of hypertensive effect after i/v dose of Adrenalin by mg/kg i/v. Here is the method: (§4) also on the hypertensive effect of 0.001 mg/kg i/v 1-adrenalin and
(§5) blood pressure and the cardiac frequency of the narcosed rate and also on
(§6) the hypertensive effect of 0.001 mg/kg i.v. 1-adrenaline and noradrenaline
(§7) on the despinalised rat. The mean lethal doses for the mouse are also

The test system of data set [5] is hypertensive effect of noradrenalin. The data set can be described thus: 50% inhibition of hypertensive effect of 0.001 mg/kg i/v noradrenalin on the despinalised rat (Table II). The data set is classed as in vivo. To be noted: iv, read-out: 50% inhibition of hypertensive effect after i/v dose of Noradrenalin by mg/kg i/v. As to the method: as §4, §5, §6, §7
Data set [6] in a line: LD50 (mean lethal dose) on the mouse (Table II). Conditions: in vivo.
From the text: as §7

Data set [7] concerns mouse. As to the kind of experiment: Mice falling from a rotating bar (Table III, a). It counts as in vivo. To be noted: ip, read-out: a PD50 mg/kg i.p. From the text: The central damping actions of the piperazinyl quinazolones on the mouse can be seen from Table III.
a = dose at which 50% of the mice fall from a rotating bar;

The test system of data set [8] is mouse. As to the kind of experiment: Inhibition of spontaneous motility, sedation, muscular relaxation, loss of grip on horizontal wire mesh in mice (Table III, b). The data set is classed as in vivo. To be noted: po, dose at which an average of 50% of the mice display symptoms, read-out: b SD50 mg/kg oral.
For data set [9], the system named is running activity of mice pre-treated with α-amphetamine sulphate. As to the kind of experiment: Inhibition of running activity of mice pre-treated with α-amphetamine sulphate (Table III, c). It counts as in vivo. Conditions: Mus musculus, ip, 3 h, 5 mg/kg α-amphetamine sulphate, 180 minutes; for inhibition in vivo at 12 mg/kg: 12mg/kg i/p, read-out: c % inhibition of motility in the treadwheel by 12mg/kg i/p; for inhibition in vivo at 25 mg/kg: 25mg/kg i/p, read-out: c % inhibition of motility in the treadwheel by 25mg/kg i/p.

Data set [10] relates to duration of sleep of mice under hexobarbital. As to the kind of experiment: Prolongation of hexobarbital sleep in mice (Table III, d). Conditions: Mus musculus, ip; 15 mg/kg i.p.; 75 mg/kg hexobarbital; read-out: d % prolongation of sleep under hexebarbital by 15 mg/kg i.p. The data set is classed as in vivo. Here is the method: d = percentage prolongation of the duration of sleep of mice which had received 75 mg/kg. of hexobarbital, reckoned on the duration of the sleep of control animals.

Data set [11] has as its system defence reaction after the thermal stimulation of the tail of the mouse. As to the kind of experiment: Analgesic effect on the mouse: delay in defence reaction after thermal stimulation of the tail (Table IV). It counts as in vivo. Conditions: po; mouse; per os; 25% delay; read-out: Delay in the defence reaction after the thermal stimulation of the tail of the mouse by 25% by mg/kg per os. From the text: From Table IV below one can see the analgesic action, measured in terms of the delayed reaction during the thermal irritation of the mouse tail. The analgesically effective doses are also below those which reduce the motor behaviour, that is to say the normal movement processes (cf. Table III).
Analgesic effect on the mouse
Delay in the defence reaction after
the thermal stimulation of the tail

Data set [12] deals with systolic and diastolic blood pressure. As to the kind of experiment: Orientating clinical test in patients (FIGS. 1 and 2). It counts as in vivo, 7 female and 1 male patient.
The conditions of data set [13]: German Published patent application No. 1,231,705 and 1,249,281; cited from earlier work.
Where [14] appears, read: 10 and 20 mg per os, 7 female and 1 male patient.

Each structure is given as a SMILES string.

Usually LD50 stands for the dose expected to kill half of the subjects tested. Consider `COc1cc2nc(CCN3CCN(c4ccccc4OC)CC3)[nH]c(=O)c2cc1OC` [Example 6, 2-(2-(1-(2-methoxyphenyl)piperazinyl-4)ethyl)-6,7-dimethoxy-4(3H)-quinazolone], for which, in data set [1], the “Blood pressure lowered by 30% by” value is on record as 0.07 and the “Blood pressure lowered by 50% by” value stood at 0.61. Moreover, in data set [2], the “Inhibition of the carotid sinus reflex by 30% by” value (“Inhibition … by 30% by” below) is recorded as 0.12 and the “Inhibition of the carotid sinus reflex by 50% by” value (shortened to “Inhibition … by 50% by”) is on record as 0.35. In addition, the ED30 in data set [3] is 0.35 mg/kg. In [4], the ED50 came to 0.036 mg/kg. Besides, the ED50 in data set [5] was more than 2.5 mg/kg. This molecule also displayed an LD50 in [6] of 600 mg/kg. Besides, in [7], the ED50 stood at 34 mg/kg. Moreover, the ED50 in data set [8] stood at 40 mg/kg. In [9], the inhibition in vivo at 12 mg/kg came to 19% and the inhibition in vivo at 25 mg/kg was 28%. The change in vivo at 15 mg/kg in [10] is 79%. Also, in [11], the ED25 stood at 1.5 mg/kg. In addition, in data set [12] (setting [14]), the “effect on the sensorium” value is recorded as “no effect on the sensorium”, the “lowering of the diastolic blood pressure” value was “statistically significant lowering”, the “lowering of the systolic blood pressure” value is “statistically significant lowering” and the tolerance entry is “very good tolerance”. The “difference in the action of 10 and 20 mg.” value in [12] (10 vs 20 mg, FIGS. 1 and 2) was “statistically confirmed”. Also, the “dose dependence of the lowering of the blood pressure” value in data set [12] (mean initial blood pressure 171.9 mm Hg systolic, 95.3 mm Hg diastolic, FIGS. 1 and 2) is “dependent upon the dose”.
Take `COc1cc2nc(CCN3CCN(c4ccccc4C)CC3)[nH]c(=O)c2cc1OC` [Example 2, 2-(2-(1-(2-tolyl)-piperazinyl-4)ethyl)-6,7-dimethoxy-4(3H)-quinazolone]: in data set [1], the “Blood pressure lowered by 30% by” value came to 0.029 and the “Blood pressure lowered by 50% by” value was more than 1.6. In data set [2], the “Inhibition … by 30% by” value is given as less than 0.01 and the “Inhibition … by 50% by” value was determined as 0.02. The ED30 in data set [3] is 0.65 mg/kg. In [4], the ED50 came out at 0.042 mg/kg. Also, the ED50 in data set [5] came out at 1.4 mg/kg. In [6], this molecule displayed an LD50 of 70 mg/kg. The ED50 in data set [7] was 35 mg/kg. In [8], the ED50 was 140 mg/kg. In addition, in [9], the inhibition in vivo at 12 mg/kg was 11% and the inhibition in vivo at 25 mg/kg worked out at 10%. Further, in data set [10], the change in vivo at 15 mg/kg turned out to be 121%. Further, in data set [11], the ED25 is 1 mg/kg.
Take `COc1cc2nc(CCN3CCN(c4ccccc4Cl)CC3)[nH]c(=O)c2cc1OC` [Example 11, 2-(2-(1-(2-chlorophenyl)piperazinyl-4)ethyl)-6,7-dimethoxy-4(2H)-quinazolone]: in data set [1], the “Blood pressure lowered by 30% by” value is 0.04 and the “Blood pressure lowered by 50% by” value is more than 1.6. In addition, in [2], the “Inhibition … by 30% by” value is on record as 0.017 and the “Inhibition … by 50% by” value came out at 0.04. For the same molecule, in data set [3], the ED30 was found to be 0.1 mg/kg. For the same molecule, in [4], the ED50 amounted to 0.048 mg/kg. In data set [5], the ED50 was more than 2.5 mg/kg. Also, in [6], the LD50 came out at 200 mg/kg. The ED50 in data set [7] worked out at 53 mg/kg. Further, the ED50 in [8] is 110 mg/kg. In [9], the inhibition in vivo at 12 mg/kg is 18% and the inhibition in vivo at 25 mg/kg amounted to 32%. In addition, in data set [10], the change in vivo at 15 mg/kg stood at 87%. Also, in [11], the ED25 is 4 mg/kg.
In the case of `CCOc1ccc2nc(CN(C)C)n(C)c(=O)c2c1` [2-dimethylaminomethyl-3-methyl-6-ethoxyquinazolone-4], in data set [13], the “analgesic action compared with 4-dimethylamino-1-phenyl-2,3-dimethylpyrazolone-5” value was “comparable”.
Turning to `COc1cc2nc(CCN3CCN(c4ccccc4F)CC3)[nH]c(=O)c2cc1OC` [Example 14, 2-(2-(1-(2-fluorophenyl)piperazinyl-4)ethyl)-6,7-dimethoxy-4(3H)-quinazolone], in data set [1], the “Blood pressure lowered by 30% by” value turned out to be 0.9. The “Blood pressure lowered by 50% by” value in data set [1] is given as more than 1.6. In addition, the “Inhibition … by 30% by” value in [2] is on record as 0.04. Further, the “Inhibition … by 50% by” value in data set [2] amounted to 0.15. In [3], the ED30 was determined as 0.18 mg/kg. In addition, the ED50 in data set [4] is 0.058 mg/kg; in data set [5] it was more than 2.5 mg/kg; in [7], 61 mg/kg; in data set [8] it was 180 mg/kg. In data set [6], the LD50 came to 150 mg/kg. In addition, the inhibition in vivo at 25 mg/kg in data set [9] was 1%. Moreover, the change in vivo at 15 mg/kg in [10] is 68%. The ED25 in data set [11] worked out at 2 mg/kg.

The values are drawn from patent US3984555A, “Therapeutic piperazinylalkyl-quinazolone-(4)-derivatives” (Byk Gulden Lomberg Chemische Fabrik Gesellschaft mit …, priority 1970, dated 1976).
